The values below come from patent US20210204580A1, “ORGANIC COMPOUNDS” (Givaudan SA, priority 2018, published 2021).

Experiment [1] in a line: off-note masking in consumables containing non-animal derived protein (general statements).
Experiment [2] is described as follows: Potato protein solution taste description. Particulars: 3 wt % potato protein solution + 14 ppt ethyl cyclohexanoate; Sample A without it: earthy, musty, fishy, bitter. The protocol:
An aqueous potato protein solution comprising 3 weight % potato protein (Solanic™ 200 by Avebe) was prepared (Sample A).

Molecules are shown by their SMILES.

Turning to `CCOC(=O)C1CCCCC1` [ethyl cyclohexanoate], the “effect on off-note attributes” value in experiment [1] (higher concentrations, 50 ppt or more) is given as “provides a significant effect on several off-note attributes, but in addition confers some fruity notes”. Besides, the off-note masking result in experiment [1] (up to 20 ppt (e.g. 0.5 ppt to about 15 ppt) added to a consumable comprising about 3 wt % non-animal derived protein) is reported as “good results”. In addition, in experiment [1] (use around its odor detection threshold, about 0.5 ppt (ng/L) to about 20 ppt (ng/L)), the masking of off-notes entry is on record as “provides the masking of certain off-notes”. Also, the taste description result in experiment [2] is recorded as “earthy, potato-like, but no fishy, bitter taste attributes have been noticed”.
